This passage reports EC50 results from patent US10730863B2, “Bridged bicyclic compounds as farnesoid X receptor modulators” (BRISTOL-MYERS SQUIBB COMPANY, priority 2017, dated 2020).

Sequence of FXR (Q96RI1 262-486): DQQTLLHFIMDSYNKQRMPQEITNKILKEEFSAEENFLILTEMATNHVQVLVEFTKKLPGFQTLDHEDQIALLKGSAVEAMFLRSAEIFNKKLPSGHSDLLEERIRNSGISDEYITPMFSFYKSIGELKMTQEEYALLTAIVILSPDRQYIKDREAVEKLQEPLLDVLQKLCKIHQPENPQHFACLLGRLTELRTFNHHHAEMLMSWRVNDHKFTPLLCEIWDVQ

The assay concerns the target FXR (Homo sapiens (Human), UniProt Q96RI1). Briefly: FXR EC50 (FXR agonist activity reported with each example). Format: cell-based.
`O=C(O)c1cccc2c1CCN(C(=O)C13CCC(OCc4c(-c5c(Cl)cccc5Cl)noc4C4CC4)(CC1)CC3)C2` [Example 139, 2-(4-((5-cyclopropyl-3-(2,6-dichlorophenyl)isoxazol-4-yl)methoxy)bicyclo[2.2.2]octane-1-carbonyl)-1,2,3,4-tetrahydroisoquinoline-5-carboxylic acid] came in with a 50% effective concentration (EC50) of 1.4 µM.

Molecule `O=C(O)c1ccc2c(c1)CCN(C(=O)C13CCC(OCc4c(-c5c(Cl)cccc5Cl)noc4C4CC4)(CC1)CC3)C2` [Example 140, 2-(4-((5-cyclopropyl-3-(2,6-dichlorophenyl)isoxazol-4-yl)methoxy)bicyclo[2.2.2]octane-1-carbonyl)-1,2,3,4-tetrahydroisoquinoline-6-carboxylic acid] came in with an EC50 of 1.7 µM. `O=C(O)c1ccc(CNC(=O)C23CCC(OCc4c(-c5c(Cl)cccc5Cl)noc4C4CC4)(CC2)CC3)cc1` [Example 141, 4-((4-((5-cyclopropyl-3-(2,6-dichlorophenyl)isoxazol-4-yl)methoxy)bicyclo[2.2.2]octane-1-carboxamido)methyl)benzoic acid] showed an EC50 of 2.8 µM. To `O=C(O)c1ccccc1CNC(=O)C12CCC(OCc3c(-c4c(Cl)cccc4Cl)noc3C3CC3)(CC1)CC2` [Example 142, 2-((4-((5-cyclopropyl-3-(2,6-dichlorophenyl)isoxazol-4-yl)methoxy)bicyclo[2.2.2]octane-1-carboxamido)methyl)benzoic acid] belongs 1.3 µM. Regarding `O=C(O)c1cccc(CNC(=O)C23CCC(OCc4c(-c5c(Cl)cccc5Cl)noc4C4CC4)(CC2)CC3)c1` [Example 143, 3-((4-((5-cyclopropyl-3-(2,6-dichlorophenyl)isoxazol-4-yl)methoxy)bicyclo[2.2.2]octane-1-carboxamido)methyl)benzoic acid], the EC50 came out at 1.3 µM. As to `CN(Cc1ccccc1C(=O)O)C(=O)C12CCC(OCc3c(-c4c(Cl)cccc4Cl)noc3C3CC3)(CC1)CC2` [Example 144, 2-((4-((5-cyclopropyl-3-(2,6-dichlorophenyl)isoxazol-4-yl)methoxy)-N-methylbicyclo[2.2.2]octane-1-carboxamido)methyl)benzoic acid], the EC50 turned out to be 0.16 µM. The molecule `O=C(O)CC1CCN(C(=O)C23CCC(OCc4c(-c5c(Cl)cccc5Cl)noc4C4CC4)(CC2)CC3)CC1` [Example 145, 2-(1-(4-((5-cyclopropyl-3-(2,6-dichlorophenyl)isoxazol-4-yl)methoxy)bicyclo[2.2.2]octane-1-carbonyl)piperidin-4-yl)acetic acid] displayed an EC50 of 3.8 µM. With `O=C(O)c1cccc2c1CN(C(=O)C13CCC(OCc4c(-c5c(Cl)cccc5Cl)noc4C4CC4)(CC1)CC3)CC2` [Example 146, 2-(4-((5-cyclopropyl-3-(2,6-dichlorophenyl)isoxazol-4-yl)methoxy)bicyclo[2.2.2]octane-1-carbonyl)-1,2,3,4-tetrahydroisoquinoline-8-carboxylic acid], the concentration for a half-maximal effect (EC50) amounted to 3.1 µM. Regarding `O=C(O)c1cccc(-c2noc(C34CCC(COCc5c(-c6c(Cl)cccc6Cl)noc5C5CC5)(CC3)CC4)n2)c1` [Example 151, 3-(5-(4-(((5-cyclopropyl-3-(2,6-dichlorophenyl)isoxazol-4-yl)methoxy)methyl)bicyclo[2.2.2]octan-1-yl)-1,2,4-oxadiazol-3-yl)benzoic acid], the EC50 came out at 0.15 µM.

With `O=C(O)c1ccc(-c2noc(C34CCC(COCc5c(-c6c(Cl)cccc6Cl)noc5C5CC5)(CC3)CC4)n2)cc1` [Example 152], the 50% effective concentration (EC50) amounted to 0.14 µM. To `O=C(O)c1cccc(-c2noc(C34CCC(COCc5c(-c6ccccc6OC(F)(F)F)noc5C5CC5)(CC3)CC4)n2)c1` [Example 153] belongs 0.32 µM; to `O=C(O)c1ccc(-c2noc(C34CCC(COCc5c(-c6ccccc6OC(F)(F)F)noc5C5CC5)(CC3)CC4)n2)cc1` [Example 154], 0.96 µM. With `COC(=O)c1ccc(-c2noc(C34CCC(COCc5c(-c6ccccc6OC(F)(F)F)noc5C5CC5)(CC3)CC4)n2)cc1` [Example 155], the EC50 came out at 2.5 µM. In turn, `COC(=O)c1ccc(-c2noc(C34CCC(COCc5c(-c6c(Cl)cccc6Cl)noc5C5CC5)(CC3)CC4)n2)cc1` [Example 156] showed an EC50 of 1.7 µM. `O=C(O)c1cccc(-c2noc(C34CCC(/C=C/c5c(-c6c(Cl)cccc6Cl)noc5C5CC5)(CC3)CC4)n2)c1` [Example 159, (E)-3-(5-(4-(2-(5-cyclopropyl-3-(2,6-dichlorophenyl)isoxazol-4-yl)vinyl)bicycle[2.2.2]octan-1-yl)-1,2,4-oxadiazol-3-yl)benzoic acid] displayed an EC50 of 0.014 µM. Take `O=C(O)c1ccc(-c2noc(C34CCC(/C=C/c5c(-c6c(Cl)cccc6Cl)noc5C5CC5)(CC3)CC4)n2)cc1` [Example 160]: the EC50 worked out at 0.051 µM. Regarding `COC(=O)c1ccc(-c2noc(C34CCC(C=Cc5c(-c6c(Cl)cccc6Cl)noc5C5CC5)(CC3)CC4)n2)cc1` [Example 161], the EC50 came out at 0.95 µM. In the case of `O=C(O)c1csc(C23CCC(COCc4c(-c5c(Cl)cccc5Cl)noc4C4CC4)(CC2)CC3)n1` [Example 162, 2-(4-(((5-cyclopropyl-3-(2,6-dichlorophenyl)isoxazol-4-yl)methoxy)methyl)bicyclo[2.2.2]octan-1-yl)thiazole-4-carboxylic acid], a half-maximal response (EC50) required 1.3 µM. `O=C(O)c1cccc(-c2noc(C34CCC(/C=C\c5c(-c6c(Cl)cccc6Cl)noc5C5CC5)(CC3)CC4)n2)c1` [Example 163, (Z)-3-(5-(4-(2-(5-cyclopropyl-3-(2,6-dichlorophenyl)isoxazol-4-yl)vinyl)bicyclo[2.2.2]octan-1-yl)-1,2,4-oxadiazol-3-yl)benzoic acid] returned an EC50 of 0.211 µM. `O=C(O)c1ccc(-c2noc(C34CCC(/C=C\c5c(-c6c(Cl)cccc6Cl)noc5C5CC5)(CC3)CC4)n2)cc1` [Example 164] displayed an EC50 of 1.6 µM. `O=C(O)c1cccc(-c2noc(C34CCC(CNc5c(-c6c(Cl)cccc6Cl)noc5C5CC5)(CC3)CC4)n2)c1` [Example 166, 3-(5-(4-(((5-cyclopropyl-3-(2,6-dichlorophenyl)isoxazol-4-yl)amino)methyl)bicyclo[2.2.2]octan-1-yl)-1,2,4-oxadiazol-3-yl)benzoic acid]: the EC50 came to 0.58 µM. `O=C(O)c1ccc(-c2noc(C34CCC(CNc5c(-c6c(Cl)cccc6Cl)noc5C5CC5)(CC3)CC4)n2)cc1` [Example 167] yielded an EC50 of 0.53 µM.

As for `O=C(O)c1ccc2nc(C34CCC(COCc5c(-c6c(Cl)cccc6Cl)noc5C5CC5)(CC3)CC4)sc2c1` [Example 168, 2-(4-(((5-cyclopropyl-3-(2,6-dichlorophenyl)isoxazol-4-yl)methoxy)methyl)bicyclo[2.2.2]octan-1-yl)benzo[d]thiazole-6-carboxylic acid], the EC50 amounted to 1.2 µM. In turn, `O=C(O)c1ccc(NC(=O)C23CCC(COCc4c(-c5c(Cl)cccc5Cl)noc4C4CC4)(CC2)CC3)c(Cl)c1` [Example 170, 3-chloro-4-(4-(((5-cyclopropyl-3-(2,6-dichlorophenyl)isoxazol-4-yl)methoxy)methyl)bicyclo[2.2.2]octane-1-carboxamido)benzoic acid] came in with a concentration for a half-maximal effect (EC50) of 0.636 µM. As for `O=C(O)c1ccc(NC(=S)C23CCC(COCc4c(-c5c(Cl)cccc5Cl)noc4C4CC4)(CC2)CC3)c(Cl)c1` [Example 171, 3-chloro-4-(4-(((5-cyclopropyl-3-(2,6-dichlorophenyl)isoxazol-4-yl)methoxy)methyl)bicyclo[2.2.2]octane-1-carbothioamido)benzoic acid], the response was half-maximal at 4.7 µM (EC50). As for `O=C(O)c1cccc2nc(C34CCC(COCc5c(-c6c(Cl)cccc6Cl)noc5C5CC5)(CC3)CC4)sc12` [Example 172, 2-(4-(((5-cyclopropyl-3-(2,6-dichlorophenyl)isoxazol-4-yl)methoxy)methyl)bicyclo[2.2.2]octan-1-yl)benzo[d]thiazole-7-carboxylic acid], the figure is 0.089 µM. Molecule `O=C(O)c1cccc(NC(=O)C23CCC(COCc4c(-c5c(Cl)cccc5Cl)noc4C4CC4)(CC2)CC3)c1Cl` [Example 173] came in with an EC50 of 1.4 µM. To `O=C(O)c1ccc(C23CCC(COCc4c(-c5c(Cl)cccc5Cl)noc4C4CC4)(CC2)CC3)cc1` [Example 174, 4-(4-(((5-cyclopropyl-3-(2,6-dichlorophenyl)isoxazol-4-yl)methoxy)methyl)bicyclo[2.2.2]octan-1-yl)benzoic acid] belongs 0.21 µM. `O=C(O)c1csc(OCC23CCC(COCc4c(-c5c(Cl)cccc5Cl)noc4C4CC4)(CC2)CC3)n1` [Example 176, 2-((4-(((5-cyclopropyl-3-(2,6-dichlorophenyl)isoxazol-4-yl)methoxy)methyl)bicyclo[2.2.2]octan-1-yl)methoxy)thiazole-4-carboxylic acid] gave an EC50 of 0.74 µM. Consider `O=C(O)c1coc(C23CCC(COCc4c(-c5c(Cl)cccc5Cl)noc4C4CC4)(CC2)CC3)n1` [Example 177, 2-(4-(((5-cyclopropyl-3-(2,6-dichlorophenyl)isoxazol-4-yl)methoxy)methyl)bicyclo[2.2.2]octan-1-yl)oxazole-4-carboxylic acid], for which it took 1.8 µM to reach a half-maximal effect (EC50). Turning to `O=C(O)c1ccc2nc(C34CCC(COCc5c(-c6c(Cl)cccc6Cl)noc5C5CC5)(CC3)CC4)oc2c1` [Example 178, 2-(4-(((5-cyclopropyl-3-(2,6-dichlorophenyl)isoxazol-4-yl)methoxy)methyl)bicyclo[2.2.2]octan-1-yl)benzo[d]oxazole-6-carboxylic acid], the EC50 came out at 0.91 µM.

As for `Cc1nc(C23CCC(COCc4c(-c5c(Cl)cccc5Cl)noc4C4CC4)(CC2)CC3)sc1C(=O)O` [Example 179, 2-(4-(((5-cyclopropyl-3-(2,6-dichlorophenyl)isoxazol-4-yl)methoxy)methyl)bicyclo[2.2.2]octan-1-yl)-4-methylthiazole-5-carboxylic acid], the response was half-maximal at 0.56 µM (EC50). As for `O=C(O)c1ccc2nc(C34CCC(/C=C/c5c(-c6c(Cl)cccc6Cl)noc5C5CC5)(CC3)CC4)sc2c1` [Example 180, (E)-2-(4-(2-(5-cyclopropyl-3-(2,6-dichlorophenyl)isoxazol-4-yl)vinyl)bicyclo[2.2.2]octan-1-yl)benzo[d]thiazole-6-carboxylic acid], the figure is 0.043 µM.

Usually EC50 stands for the concentration needed to bring the measured effect to its halfway point.
